Source: US5696112A, “Fused heterocyclic azepines as vasopressin antagonists” (American Cyanamid Company, priority 1995, dated 1997)
Like-named read-outs stand apart in the source and are kept apart here.

Experiments:
[1] = system: Vasopressin V1; assay: Vasopressin V1 Antagonist Activity in Conscious Rats (vasopressin vasopressor response); assay type: in vivo, rat; conditions: for inhibition in vivo at 30 mg/kg / inhibition in vivo at 20 mg/kg / inhibition in vivo at 10 mg/kg: Rattus norvegicus, read-out: Vasopressin vasopressor response, Max. % Inhibition
Method: Vasopressin V1 Antagonist Activity in Conscious Rats Conscious rats are restrained in a supine position with elastic tape. The area at the base of the tail is locally anesthetization by subcutaneous infiltration with 2% procaine (0.2 ml). Using aseptic technique the ventral caudal tail artery is isolated and a cannula made of PE 10 and 20 (heat-fused) tubing is passed into the lower abdominal aorta. The cannula is secured, heparinized (1000 i.u./cc), sealed and the would closed with one or two stitches of Dexon 4-0. The caudal vein is also cannulated in the same manner for intravenous drug administration. The duration of the surgery is approximately 5 minutes. Additional local anesthesia (2% procaine or lidocaine) is provided as needed. The animals are placed in plastic restraining cages in an upright position. The cannula is attached to a […] pressure transducer and pulsatile blood pressure is recorded. […] Percentage of antagonism by the compound is calculated using the pre-drug vasopressin vasopressor response as 100%.

[2] = biological target: T1, Rat Hepatic V1 Receptors (vasopressin V1) (Rattus norvegicus, UniProt P30560); assay: Binding Assay to Rat Hepatic V1 Receptors; conditions: rat hepatic V1, [3H]vasopressin
T1 construct: Rat liver plasma membranes expressing the vasopressin V1 receptor subtypes are isolated by sucrose density gradient; from tissue; host or cells: rat liver plasma membranes
T1 sequence (P30560 whole entry): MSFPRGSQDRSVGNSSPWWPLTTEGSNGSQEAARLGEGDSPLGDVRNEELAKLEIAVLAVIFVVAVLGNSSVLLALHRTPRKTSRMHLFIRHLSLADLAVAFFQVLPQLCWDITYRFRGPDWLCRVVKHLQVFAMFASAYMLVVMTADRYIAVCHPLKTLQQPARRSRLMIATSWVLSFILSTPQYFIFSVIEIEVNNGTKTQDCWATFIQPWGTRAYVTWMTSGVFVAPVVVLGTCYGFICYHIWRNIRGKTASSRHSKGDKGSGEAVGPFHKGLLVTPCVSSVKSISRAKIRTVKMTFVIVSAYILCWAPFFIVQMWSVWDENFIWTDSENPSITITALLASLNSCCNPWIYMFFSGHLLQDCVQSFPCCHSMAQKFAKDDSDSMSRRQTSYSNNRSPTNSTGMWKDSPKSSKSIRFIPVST
Method: Binding Assay to Rat Hepatic V1 Receptors
Rat liver plasma membranes expressing the vasopressin V1 receptor subtypes are isolated by sucrose density gradient according to the method described by Lesko et al., (1973). These membranes are quickly suspended in 50.0 mMTris.HCl buffer, pH 7.4, containing 0.2% bovine serum albumin (BSA) and 0.1 mM phenylmethylsulfonylfluoride (PMSF) and kept frozen at -70° C. until used in subsequent binding experiments. For binding experiments, the following is added to the wells of a ninety-six well format microtiter plate: 100 μl of 100.0 mM Tris.HCl buffer containing 10.0 mM MgCl2, 0.2% heat inactivated BSA and a mixture of protease inhibitors: leupeptin, 1.0 mg %; aprotinin, 1.0 mg %, 1,10-phenanthroline,2.0 mg %; trypsin inhibitor, 10.0 mg % and 0.1 mM PMSF, 20.0 μl of [phenylalanyl-3,4,5-^3 H]vasopressin (S.A. 45.1 Ci/mmole) at 0.8 nM, and the reaction initiated by the addition of 80 μl of tissue membranes containing 20 μg of tissue protein. The plates are kept undisturbed on the bench top at room temperature for 120 min. to reach equilibrium. Nonspecific samples are assayed in the presence of 0.1 μM of the unlabeled antagonist phenylalanylvasopressin, added in 20.0 μl volume to a final incubation volume of 200 μl. Upon completion of binding, the content of each well is filtered off, using a Brandel® cell Harvester (Gaithersburg, Md.). The radioactivity trapped on the filter disk by the ligand-receptor complex is assessed by liquid scintillation counting in a Packard LS Counter, with an efficiency of 65% for tritium. The data are analyzed for IC50 values by the LUNDON-2 program for competition (LUNDON SOFTWARE, OH).

[3] = biological target: T2, oxytocin receptors (Rattus norvegicus, UniProt P70536); assay: Oxytocin Receptor Binding; design: species or system Sprague-Dawley rats; conditions: for IC50: 1.0 nM [3H]oxytocin
T2 construct: The uteri are dissected out, cleaned of fat and connective tissues; from tissue; host or cells: uterus membranes of DES-treated female Sprague-Dawley rats
T2 sequence (P70536 1-388): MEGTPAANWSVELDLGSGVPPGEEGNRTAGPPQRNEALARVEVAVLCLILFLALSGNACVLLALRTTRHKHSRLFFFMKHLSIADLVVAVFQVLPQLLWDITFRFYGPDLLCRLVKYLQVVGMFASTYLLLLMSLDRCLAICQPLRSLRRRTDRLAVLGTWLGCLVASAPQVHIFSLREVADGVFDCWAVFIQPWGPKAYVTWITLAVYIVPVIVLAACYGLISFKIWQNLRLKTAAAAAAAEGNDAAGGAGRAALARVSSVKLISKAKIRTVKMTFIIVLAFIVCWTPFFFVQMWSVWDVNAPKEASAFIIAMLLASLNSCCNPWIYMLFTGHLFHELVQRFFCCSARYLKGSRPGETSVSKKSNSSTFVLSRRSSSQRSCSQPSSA
Summary of the method: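 Membranes from uteri of DES-primed (0.3 mg/kg i.m., 18 h) female Sprague-Dawley rats incubated 60 min at 22 °C with 1.0 nM [3H]oxytocin in 50 mM Tris.HCl pH 7.4, 5 mM MgCl2 plus protease inhibitors; nonspecific binding with 1.0 uM oxytocin. IC50 from displacement after filtration.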

IC50 [2] [µM]	IC50 [3] [µM]	inhibition at 10 µM [3] [%]	inhibition at 1.25 µM ([3]; 1.25 μM) [%]	Compound	Time (Min) of Max. % Inhibition ([1]; 30 mg/kg po) [min]	inhibition in vivo at 30 mg/kg ([1]; 30 mg/kg po) [%]	Time (Min) of Max. % Inhibition ([1]; 20 mg/kg iv) [min]	inhibition in vivo at 20 mg/kg ([1]; 20 mg/kg iv) [%]	Time (Min) of Max. % Inhibition ([1]; 10 mg/kg iv) [min]	inhibition in vivo at 10 mg/kg ([1]; 10 mg/kg iv) [%]	Time (Min) of Max. % Inhibition ([1]; 30 mg/kg iv) [min]	inhibition in vivo at 30 mg/kg ([1]; 30 mg/kg iv) [%]
0.21	5.2	60	–	O=C(Nc1ccc(C(=O)N2CCCCc3sccc32)cc1)c1cc(Cl)ccc1Cl [Example 9, N-[4-[(5,6,7,8-Tetrahydro-4H-thieno[3,2-b]azepin-4-yl)carbonyl]phenyl]2,5-dichlorobenzamide]	180	17	–	–	–	–	–	–
7.6	–	16	–	Cc1c(F)cccc1C(=O)Nc1ccc(C(=O)N2CCCC(=O)c3sccc32)cc1 [Example 155, N-[4-[(5,6,7,8-Tetrahydro-8-oxo-4H-thieno[3,2-b]azepine-4-yl)carbonyl]phenyl]-3-fluoro-2-methylbenzamide]	–	–	60	62	–	–	–	–
0.16	0.95	97	–	Cc1c(F)cccc1C(=O)Nc1ccc(C(=O)N2CCCCc3sc(Cl)cc32)cc1 [Example 94, N-[4-[(2-Chloro-5,6,7,8-tetrahydro-4H-thieno[3,2-b]azepin-4-yl)carbonyl]phenyl]-3-fluoro-2-methylbenzamide]	–	–	90	74	–	–	–	–
5.5	–	0	–	O=C(Nc1ccc(C(=O)N2CCCC(=O)c3sccc32)cc1)c1ccc(Cl)cc1Cl [Example 156, N-[4-[(5,6,7,8-Tetrahydro-8-oxo-4H-thieno[3,2-b]azepin-4-yl)carbonyl]-phenyl]-2,4-dichlorobenzamide]	–	–	240	63	–	–	–	–
3.6	–	29	–	Cc1ccccc1C(=O)Nc1ccc(C(=O)N2CCCC(=O)c3sccc32)cc1 [Example 157, N-[4-[(5,6,7,8-Tetrahydro-8-oxo-4H-thieno[3,2-b]azepin-4-yl)carbonyl]-phenyl]-2-methylbenzamide]	–	–	60	66	–	–	–	–
0.014	0.68	95	–	Cc1ccccc1CC(=O)Nc1ccc(C(=O)N2CCCCc3sccc32)cc1 [Example 13, N-[4-[(5,6,7,8-Tetrahydro-4H-thieno[3,2-b]azepin-4-yl)carbonyl]phenyl]2-methylbenzeneacetamide]	–	–	–	–	60	80	–	–
–	1.38	85	–	O=C(Nc1ccc(C(=O)N2CCCCc3sc(Cl)cc32)cc1)c1c(Cl)cccc1Cl [Example 95, N-[4-[(2-Chloro-5,6,7,8-tetrahydro-4H-thieno[3,2-b]azepin-4-yl)carbonyl]phenyl]-2,6-dichlorobenzamide]	–	–	–	–	30	61	–	–
0.088	0.27	–	58	Cc1ccccc1C(=O)Nc1ccc(C(=O)N2CCCCc3sc(Cl)cc32)cc1 [Example 96, N-[4-[(2-Chloro-5,6,7,8-tetrahydro-4H-thieno[3,2-b]azepin-4-yl)carbonyl]phenyl]-2-methylbenzamide]	–	–	–	–	90	65	–	–
–	0.6	86	–	O=C(Nc1ccc(C(=O)N2CCCCc3sccc32)c(Cl)c1)c1ccc(F)cc1Cl [Example 183]	–	–	–	–	–	–	120	78
0.23	1.8	83	–	O=C(Nc1ccc(C(=O)N2CCCCc3sc(Cl)cc32)cc1)c1ccc(Cl)cc1Cl [Example 93, 2,4-Dichloro-N-[4-[(2-chloro-5,6,7,8-tetrahydro-4H-thieno[3,2-b]azepin-4-yl)carbonyl]phenyl]benzamide]	–	–	90	77	–	–	–	–
–	–	55	–	O=C(Nc1ccc(C(=O)N2CCCCc3sccc32)c(Cl)c1)c1ccc(Cl)cc1Cl [Example 68, N-[4-[(5,6,7,8-Tetrahydro-4H-thieno[3,2-b]azepin-4-yl)carbonyl]-3-chlorophenyl]-2,4-dichlorobenzamide]	–	–	120	50	–	–	–	–
–	0.51	97	–	Cc1ccc(F)cc1C(=O)Nc1ccc(C(=O)N2CCCCc3sccc32)c(Cl)c1 [Example 70, N-[4-[(5,6,7,8-Tetrahydro-4H-thieno[3,2-b]azepin-4-yl)carbonyl]-3-chlorophenyl]-5-fluoro-2-methylbenzamide]	–	–	120	67	–	–	–	–
